Measured values taken from US20230248845A1, “COMBINATION OF AN ANTIBODY-DRUG CONJUGATE AND AN ANTIBODY-SAPONIN CONJUGATE” (SAPREME TECHNOLOGIES B.V., priority 2020, published 2023).
Like-named read-outs stand apart in the source and are kept apart here.

Assays:
Assay in all cases: Cell viability assay (MTS), targeted protein toxin mediated cell killing
Assay type in all cases: cell-based, human
A431 cells (EGFR^++) = system: A431 cells (EGFR^++)
Description: (§1) After treatment the cells were incubated for 72 hr at 37° C. before the cell viability was determined by a MTS-assay, performed according to the manufacturer's instruction (CellTiter 96® AQueous One Solution Cell Proliferation Assay, Promega). Briefly, the MTS solution was diluted 20× in DMEM without phenol red (PAN-Biotech GmbH) supplemented with 10% FBS. The cells were washed once with 200 μL/PBS well, after which 100 μL diluted MTS solution was added/well. The plate was incubated for approximately 20-30 minutes at 37° C. Subsequently, the OD at 492 nm was measured on a Thermo Scientific Multiskan FC plate reader (Thermo Scientific). For quantification the background signal of ‘medium only’ wells was subtracted from all other wells, before the cell viability percentage of treated/untreated cells was calculated, by dividing the background corrected signal of treated wells over the background corrected signal of the untreated wells (×100).

[1] = system: MDA-MB-468 cells (HER2^−); conditions: FIG. 9B
Description: as §1

SK-BR-3 cells (HER2^++) = system: SK-BR-3 cells (HER2^++)
Description: as §1

A2058 cells (EGFR^−) = conditions: FIG. 8B
Description: as §1

[2] = SO1861 titrated on 10 pM CD71mab-saporin
[3] = SO1861 titrated on 10 pM Pertuzumab-saporin
[4] = SO1861 titrated on 10 pM cetuximab-saporin
[5] = SO1861 titrated on 10 pM matuzumab-dianthin
[6] = SO1861 titrated on 50 pM Pertuzumab-saporin
[7] = SO1861 titrated on 50 pM trastuzumab-saporin
[8] = substance alone, equivalent concentrations, FIG. 2A

**Q.** Which results are given for `CC(=O)O[C@H]1[C@H](O[C@@H]2OC[C@@H](O)[C@H](O)[C@H]2O)[C@@H](O)[C@H](O[C@@H]2[C@H](O)[C@@H](O[C@@H]3O[C@@H](C)[C@H](O[C@@H]4OC[C@@H](O)[C@H](O[C@@H]5O[C@H](CO)[C@@H](O)[C@H](O)[C@H]5O)[C@H]4O)[C@@H](O)[C@H]3O)[C@H](OC(=O)[C@]34CCC(C)(C)C[C@H]3C3=CC[C@@H]5[C@@]6(C)CC[C@H](O[C@@H]7O[C@H](C(=O)O)[C@@H](O)[C@H](O[C@@H]8OC[C@@H](O)[C@H](O)[C@H]8O)[C@H]7O[C@@H]7O[C@H](CO)[C@H](O)[C@H](O)[C@H]7O)[C@@](C)(C=O)[C@@H]6CC[C@@]5(C)[C@]3(C)C[C@H]4O)O[C@@H]2C)O[C@@H]1C` [SO1861]?
**A.** IC50 (A431 cells (EGFR^++); SO1861 titrated on 10 pM CD71-saporin, FIG. 8A, read-out: SO1861 IC50 cell killing): 200 nM; IC50 (A431 cells (EGFR^++); SO1861 titrated on 10 pM cetuximab-saporin, FIG. 8A, read-out: SO1861 IC50 cell killing): 200 nM; IC50 (A431 cells (EGFR^++); SO1861 titrated on 10 pM matuzumab-dianthin, FIG. 8A, read-out: SO1861 IC50 cell killing): 200 nM; IC50 (A431 cells (EGFR^++); SO1861 titrated on 10 pM pertuzumab-saporin, FIG. 8A, read-out: SO1861 IC50 cell killing): 300 nM; IC50 (A431 cells (EGFR^++); SO1861 titrated on 50 pM pertuzumab-saporin, FIG. 8A, read-out: SO1861 IC50 cell killing): 200 nM; IC50 (A431 cells (EGFR^++); SO1861 titrated on 50 pM trastuzumab, FIG. 8A, read-out: SO1861 IC50 cell killing): 250 nM; IC50 [1, 2]: 200 nM; IC50 [1, 3]: > 1000 nM; IC50 [1, 4]: 200 nM; IC50 [1, 5]: 200 nM; IC50 [1, 6]: > 1000 nM; IC50 [1, 7]: > 1000 nM; IC50 (SK-BR-3 cells (HER2^++); SO1861 titrated on 10 pM CD71-saporin, FIG. 9A, read-out: SO1861 IC50 cell killing): 200 nM; IC50 (SK-BR-3 cells (HER2^++); SO1861 titrated on 10 pM Pertuzumab-saporin, FIG. 9A, read-out: SO1861 IC50 cell killing): 200 nM; IC50 (SK-BR-3 cells (HER2^++); SO1861 titrated on 10 pM cetuximab-saporin, FIG. 9A, read-out: SO1861 IC50 cell killing): 200 nM; IC50 (SK-BR-3 cells (HER2^++); SO1861 titrated on 10 pM matuzumab-dianthin, FIG. 9A, read-out: SO1861 IC50 cell killing): 200 nM; IC50 (SK-BR-3 cells (HER2^++); SO1861 titrated on 50 pM Pertuzumab-saporin, FIG. 9A, read-out: SO1861 IC50 cell killing): 200 nM; IC50 (SK-BR-3 cells (HER2^++); SO1861 titrated on 50 pM trastuzumab-saporin, FIG. 9A, read-out: SO1861 IC50 cell killing): 200 nM; IC50 (A2058 cells (EGFR^−); [2]): 200 nM; IC50 (A2058 cells (EGFR^−); [3]): 200 nM; cell killing activity (A2058 cells (EGFR^−); [4]): not active; cell killing activity (A2058 cells (EGFR^−); [5]): not active; IC50 (A2058 cells (EGFR^−); [6]): 200 nM; IC50 (A2058 cells (EGFR^−); [7]): 200 nM

**Q.** For “matuzumab-SO1861: SO1861-EMCH conjugated via cysteine residues (Cys) to matuzumab, with a DAR 3,3”, which IC50 (A431 cells (EGFR^++); substance titrated on fixed 10 pM EGFdianthin, FIG. 6A, read-out: IC50 cell killing) is on record?
**A.** 2 nM

**Q.** What about the IC50 (A431 cells (EGFR^++); substance titrated on fixed 10 pM cetuximab-saporin, FIG. 6A, read-out: IC50 cell killing) of the same compound?
**A.** 2 nM

**Q.** What does the source list for “pertuzumab-(Cys-L-SO1861)^4: SO1861-EMCH conjugated via cysteine residues (Cys) to pertuzumab, with a DAR 4”?
**A.** cell killing activity (SK-BR-3 cells (HER2^++); [8]): could not induce any cell killing activity; IC50 (SK-BR-3 cells (HER2^++); substance titrated on fixed 50 pM trastuzumab-saporin, FIG. 2A, read-out: IC50 cell killing): 0.5 nM; cell killing activity at higher concentrations (SK-BR-3 cells (HER2^++); titrated on fixed 50 pM pertuzumab-dianthin, higher concentrations): cell killing activity was reduced

**Q.** Which cell killing activity (SK-BR-3 cells (HER2^++); equivalent concentrations + 50 pM trastuzumab-saporin, FIG. 2A) does the source give for “pertuzumab: monoclonal antibody binding human HER2” here?
**A.** could not induce any cell killing activity

**Q.** And the cell killing activity (SK-BR-3 cells (HER2^++); [8])?
**A.** could not induce any cell killing activity
